Several values for one entry are separate records, joined by “and”; a condition that tells them apart may be missing. Equal values may be shown once. Where a SMILES comes first, the peptide text is derived from it. [ ]: non-standard residue; d: D form. Hyp = O=C(O)[C@@H]1C[C@@H](O)CN1
System: human PBMCs
Assay: PBMC cell counts (total, live, viability; trypan blue, Countess) with and without LPS and test articles (Example 9)
Assay type: cell-based
Procedure: Treatment Human PBMCs were pretreated with YY-101, YDE-011 and YDE-043 or reference compound; Xiidra® at various concentration (ranging from 1 nM to 100 uM) for 2 h before stimulation. An equal volume of 0.5% DMSO was used as a vehicle control. Then, the cells were treated with LPS at 5 ug/ml. The supernatants from treated cells were harvested at 24 h and placed in a 96 well for Luminex cytokine & chemokine profiling using a Luminex 200 multiplex assay (Luminex; R&D system, USA).
The main study arm with triplicate wells per group in a 24-well plate: • 1. Blank • 2. PBMC: 0.5% DMSO • 3. PBMC+LPS (5 ug/ml) • 4. PBMC+YY-101 100 uM • 5. PBMC+YY-101 10 uM • 6. PBMC+YY-101 1 uM • 7. PBMC+YY-101 0.1 uM • 8. PBMC+YY-101 0.01 uM • 9. PBMC+LPS (5 ug/ml)+Xiidra®100 uM • 10. PBMC+LPS (5 ug/ml)+Xiidra® 10 uM • 11. PBMC+LPS (5 ug/ml)+Xiidra® 1 uM • 12. PBMC+LPS (5 ug/ml)+Xiidra®0.1 uM • 13. PBMC+LPS (5 ug/ml)+Xiidra®0.01 uM • 14. PBMC+LPS (5 ug/ml)+Xiidra®0.001 uM • 15. PBMC+LPS (5 ug/ml)+YY-101 100 uM • 16. PBMC+LPS (5 ug/ml)+YY-101 10 uM • 17. PBMC+LPS (5 ug/ml)+YY-101 1 uM • 18. PBMC+LPS (5 ug/ml)+YY-101 0.1 uM • 19. PBMC+LPS (5 ug/ml)+YY-101 0.01 uM • 20. PBMC+LPS (5 ug/ml)+YY-101 0.001 uM • 21. PBMC+LPS (5 ug/ml)+YDE-011 100 uM • 22. PBMC+LPS (5 ug/ml)+YDE-011 10 uM • 23. PBMC+LPS (5 ug/ml)+YDE-011 1 uM • 24. PBMC+LPS (5 ug/ml)+YDE-011 0.1 uM • 25. PBMC+LPS (5 ug/ml)+YDE-011 0.01 uM • 26. PBMC+LPS (5 ug/ml)+YDE-011 0.001 uM • 27. PBMC+LPS (5 ug/ml)+YDE-043 100 uM • 28. PBMC+LPS (5 ug/ml)+YDE-043 10 uM • 29. PBMC+LPS (5 ug/ml)+YDE-043 1 uM • 30. PBMC+LPS (5 ug/ml)+YDE-043 0.1 uM • 31. PBMC+LPS (5 ug/ml)+YDE-043 0.01 uM • 32. PBMC+LPS (5 ug/ml)+YDE-043 0.001 uM
The number of PBMCs was measured after 24 hr of treatment. The culture both and trypan blue were diluted 1:1 and 10 ul was added to Countess cell counting chamber (Thermo fisher, USA). The number of PBMCs was measured using a Countess automated cell counter (Thermo fisher, USA).

[1] = PBMC + LPS(5 ug/ml) + compound 0.001 uM, 24 hr
[2] = PBMC + LPS(5 ug/ml) + compound 0.01 uM, 24 hr
[3] = PBMC + LPS(5 ug/ml) + compound 0.1 uM, 24 hr
[4] = PBMC + LPS(5 ug/ml) + compound 1 uM, 24 hr
[5] = PBMC + LPS(5 ug/ml) + compound 10 uM, 24 hr
[6] = PBMC + LPS(5 ug/ml) + compound 100 uM, 24 hr
[7] = PBMC + LPS(5 ug/ml) + test article 0.001 uM, Mean
[8] = PBMC + LPS(5 ug/ml) + test article 0.001 uM, single replicates
[9] = PBMC + LPS(5 ug/ml) + test article 0.01 uM, Mean
[10] = PBMC + LPS(5 ug/ml) + test article 0.01 uM, single replicates
[11] = PBMC + LPS(5 ug/ml) + test article 0.1 uM, Mean
[12] = PBMC + LPS(5 ug/ml) + test article 0.1 uM, single replicates
[13] = PBMC + LPS(5 ug/ml) + test article 1 uM, Mean
[14] = PBMC + LPS(5 ug/ml) + test article 1 uM, single replicates
[15] = PBMC + LPS(5 ug/ml) + test article 10 uM, Mean
[16] = PBMC + LPS(5 ug/ml) + test article 10 uM, single replicates
[17] = PBMC + LPS(5 ug/ml) + test article 100 uM, Mean
[18] = PBMC + LPS(5 ug/ml) + test article 100 uM, single replicates
[19] = PBMC + LPS(5 ug/ml), test article 0.001 uM, Mean
[20] = PBMC + LPS(5 ug/ml), test article 0.001 uM, single replicates
[21] = PBMC + LPS(5 ug/ml), test article 0.01 uM, Mean
[22] = PBMC + LPS(5 ug/ml), test article 0.01 uM, single replicates
[23] = PBMC + LPS(5 ug/ml), test article 0.1 uM, Mean
[24] = PBMC + LPS(5 ug/ml), test article 0.1 uM, single replicates
[25] = PBMC + LPS(5 ug/ml), test article 1 uM, Mean
[26] = PBMC + LPS(5 ug/ml), test article 1 uM, single replicates
[27] = PBMC + LPS(5 ug/ml), test article 10 uM, Mean
[28] = PBMC + LPS(5 ug/ml), test article 10 uM, single replicates

`CC(C)C[C@H](NC(=O)CNC(=O)[C@H](CC(=O)O)NC(=O)[C@H](CCC(N)=O)NC(=O)CNC(=O)[C@@H]1C[C@@H](O)CN1)C(=O)N[C@@H](C)C(=O)NCC(=O)N1CCC[C@H]1C(=O)N[C@@H](CCCCN)C(=O)O` [YY-101] (H-[Hyp]GQDGLAGPK-OH; N-terminus and C-terminus assumed) was tested, and the Live cell [1] was 6.5 ± 0.4 10^5/ml, the Total cell [1] was 7.7 ± 0.6 10^5/ml and the Live cell [2] was 6.2 ± 0.1 10^5/ml. The Total cell [2] was 8.1 ± 0.6 10^5/ml, the Live cell [3] was 5.9 ± 0.3 10^5/ml and the Total cell [3] was 7.8 ± 0.8 10^5/ml. The Live cell [4] was 6.5 ± 0.3 10^5/ml, the Total cell [4] was 9.8 ± 0.6 10^5/ml and the Live cell [5] was 6.7 ± 0.5 10^5/ml. For the same compound, the Total cell [5] was 9.1 ± 1.1 10^5/ml, the Live cell [6] was 5.8 ± 0.4 10^5/ml and the Total cell [6] was 7.8 ± 1.0 10^5/ml. For the same compound, the Live cell [7] was 6.5 10^5/ml, the “Live cell (10^5/ml)” value [7] was 6.5 10^5/ml and the “Live cell, Mean” value [7] was 6.5 10^5/ml. The Live cell (PBMC + LPS(5 ug/ml) + test article 0.001 uM, individual replicates (1st, 2nd, 3rd)) was 5.7 10^5/ml and 7.1 10^5/ml and 6.6 10^5/ml, the Live cell [8] was 5.7 10^5/ml and 7.1 10^5/ml and 6.6 10^5/ml and the “Live cell (10^5/ml)” value [8] was 5.7 10^5/ml and 7.1 10^5/ml and 6.6 10^5/ml. For the same compound, the Live cell (PBMC + LPS(5 ug/ml) + test article 0.001 uM, single replicates (1st, 2nd, 3rd)) was 5.7 10^5/ml and 7.1 10^5/ml and 6.6 10^5/ml, the Live cell [9] was 6.2 10^5/ml and the “Live cell (10^5/ml)” value [9] was 6.2 10^5/ml. For the same compound, the “Live cell, Mean” value [9] was 6.2 10^5/ml, the Live cell (PBMC + LPS(5 ug/ml) + test article 0.01 uM, individual replicates (1st, 2nd, 3rd)) was 6.4 10^5/ml and 6.0 10^5/ml and 6.1 10^5/ml and the Live cell [10] was 6.4 10^5/ml and 6.0 10^5/ml and 6.1 10^5/ml. The “Live cell (10^5/ml)” value [10] was 6.4 10^5/ml and 6.0 10^5/ml and 6.1 10^5/ml, the Live cell (PBMC + LPS(5 ug/ml) + test article 0.01 uM, single replicates (1st, 2nd, 3rd)) was 6.4 10^5/ml and 6.0 10^5/ml and 6.1 10^5/ml and the Live cell [11] was 5.9 10^5/ml. The “Live cell (10^5/ml)” value [11] was 5.9 10^5/ml, the “Live cell, Mean” value [11] was 5.9 10^5/ml and the Live cell [12] was 6.2 10^5/ml (2×) and 5.2 10^5/ml. For the same compound, the “Live cell (10^5/ml)” value [12] was 6.2 10^5/ml (2×) and 5.2 10^5/ml, the Live cell (PBMC + LPS(5 ug/ml) + test article 0.1 uM, single replicates (1st, 2nd, 3rd)) was 6.2 10^5/ml (2×) and 5.2 10^5/ml and the Live cell [13] was 6.5 10^5/ml. For the same compound, the “Live cell (10^5/ml)” value [13] was 6.5 10^5/ml, the “Live cell, Mean” value [13] was 6.5 10^5/ml and the Live cell [14] was 6.3 10^5/ml and 7.1 10^5/ml and 6.2 10^5/ml. For the same compound, the “Live cell (10^5/ml)” value [14] was 6.3 10^5/ml and 7.1 10^5/ml and 6.2 10^5/ml, the Live cell (PBMC + LPS(5 ug/ml) + test article 1 uM, single replicates (1st, 2nd, 3rd)) was 6.3 10^5/ml and 7.1 10^5/ml and 6.2 10^5/ml and the Live cell [15] was 6.7 10^5/ml. The “Live cell (10^5/ml)” value [15] was 6.7 10^5/ml, the “Live cell, Mean” value [15] was 6.7 10^5/ml and the Live cell [16] was 6.0 10^5/ml and 6.4 10^5/ml and 7.6 10^5/ml. The “Live cell (10^5/ml)” value [16] was 6.0 10^5/ml and 6.4 10^5/ml and 7.6 10^5/ml, the Live cell (PBMC + LPS(5 ug/ml) + test article 10 uM, single replicates (1st, 2nd, 3rd)) was 6.0 10^5/ml and 6.4 10^5/ml and 7.6 10^5/ml and the Live cell [17] was 5.8 10^5/ml. The “Live cell (10^5/ml)” value [17] was 5.8 10^5/ml, the “Live cell, Mean” value [17] was 5.8 10^5/ml and the Live cell [18] was 6.3 10^5/ml and 6.2 10^5/ml and 5.0 10^5/ml. For the same compound, the “Live cell (10^5/ml)” value [18] was 6.3 10^5/ml and 6.2 10^5/ml and 5.0 10^5/ml, the Live cell (PBMC + LPS(5 ug/ml) + test article 100 uM, single replicates (1st, 2nd, 3rd)) was 6.3 10^5/ml and 6.2 10^5/ml and 5.0 10^5/ml and the Live cell (PBMC + LPS(5 ug/ml), 0.001 uM, Mean) was 6.5 10^5/ml. The Live cell (PBMC + LPS(5 ug/ml), 0.001 uM, single replicates) was 5.7 10^5/ml and 7.1 10^5/ml and 6.6 10^5/ml, the Live cell (PBMC + LPS(5 ug/ml), 0.01 uM, Mean) was 6.2 10^5/ml and the Live cell (PBMC + LPS(5 ug/ml), 0.01 uM, single replicates) was 6.4 10^5/ml and 6.0 10^5/ml and 6.1 10^5/ml. The Live cell (PBMC + LPS(5 ug/ml), 0.1 uM, Mean) was 5.9 10^5/ml, the Live cell (PBMC + LPS(5 ug/ml), 0.1 uM, single replicates) was 6.2 10^5/ml (2×) and 5.2 10^5/ml and the Live cell (PBMC + LPS(5 ug/ml), 1 uM, Mean) was 6.5 10^5/ml. For the same compound, the Live cell (PBMC + LPS(5 ug/ml), 1 uM, single replicates) was 6.3 10^5/ml and 7.1 10^5/ml and 6.2 10^5/ml, the Live cell (PBMC + LPS(5 ug/ml), 10 uM, Mean) was 6.7 10^5/ml and the Live cell (PBMC + LPS(5 ug/ml), 10 uM, single replicates) was 6.0 10^5/ml and 6.4 10^5/ml and 7.6 10^5/ml. The Live cell (PBMC + LPS(5 ug/ml), 100 uM, Mean) was 5.8 10^5/ml, the Live cell (PBMC + LPS(5 ug/ml), 100 uM, single replicates) was 6.3 10^5/ml and 6.2 10^5/ml and 5.0 10^5/ml and the Live cell [19] was 6.5 10^5/ml. For the same compound, the Total cell count [19] was 7.7 10^5/ml, the Live cell [20] was 5.7 10^5/ml and 7.1 10^5/ml and 6.6 10^5/ml and the Total cell count [20] was 6.7 10^5/ml and 8.8 10^5/ml and 7.5 10^5/ml. For the same compound, the Viability [20] was 84.0% and 80.0% and 89.0%, the Live cell [21] was 6.2 10^5/ml and the Total cell count [21] was 8.1 10^5/ml. The Live cell [22] was 6.4 10^5/ml and 6.0 10^5/ml and 6.1 10^5/ml, the Total cell count [22] was 9.2 10^5/ml and 8.1 10^5/ml and 7.0 10^5/ml and the Viability [22] was 70.0% and 75.0% and 87.0%. The Live cell [23] was 5.9 10^5/ml, the Total cell count [23] was 7.8 10^5/ml and the Live cell [24] was 6.2 10^5/ml (2×) and 5.2 10^5/ml. For the same compound, the Total cell count [24] was 9.3 10^5/ml and 6.7 10^5/ml and 7.5 10^5/ml, the Viability [24] was 67.0% and 77.0% and 83.0% and the Live cell [25] was 6.5 10^5/ml. For the same compound, the Total cell count [25] was 9.8 10^5/ml, the Live cell [26] was 6.3 10^5/ml and 7.1 10^5/ml and 6.2 10^5/ml and the Total cell count [26] was 8.8 10^5/ml and 9.7 10^5/ml and 11.0 10^5/ml. The Viability [26] was 72.0% and 73.0% and 55.0%, the Live cell [27] was 6.7 10^5/ml and the Total cell count [27] was 9.1 10^5/ml. The Live cell [28] was 6.0 10^5/ml and 6.4 10^5/ml and 7.6 10^5/ml, the Total cell count [28] was 7.3 10^5/ml and 9.0 10^5/ml and 11.0 10^5/ml and the Viability [28] was 83.0% and 71.0% and 67.0%.
